The values below are quoted from earlier work in US20100105750A1, “STABLE METRONIDAZOLE GEL FORMULATIONS” (NYCOMED US INC., priority 2008, published 2010).

For `OCc1ccccc1` [benzyl alcohol], the water soluble is 4 g/100 mL.
